Laboratory results taken from patent publication US20180081270A1, “RADIATION-SENSITIVE COMPOSITION, AMORPHOUS FILM, AND METHOD FOR FORMING RESIST PATTERN” (Mitsubishi Gas Chemical Company, Inc., priority 2015, published 2018).

What was measured:
[1] = Solubility in PGME and PGMEA at 23° C.; assay type: physicochemical; details: for solubility in PGME and PGMEA (dissolution amount): 1-methoxy-2-propanol (PGME) and propylene glycol monomethyl ether acetate (PGMEA)
Procedure: The dissolution amount of the compound in 1-methoxy-2-propanol (PGME) and propylene glycol monomethyl ether acetate (PGMEA) was measured at 23° C., and the results were evaluated according to the following criteria.
Evaluation A: 20% by mass or more Evaluation B: 10% by mass or more and less than 20% by mass Evaluation C: less than 10% by mass

[2] = 10% thermal reduction temperature by thermogravimetry (TG); assay type: physicochemical; details: 10° C./min to 500° C., nitrogen gas stream
Procedure: “EXSTAR 6000 DSC apparatus” manufactured by SII NanoTechnology Inc. was used. About 5 mg of a sample was placed in an unsealed container made of aluminum, and the temperature was raised to 500° C. at a temperature increase rate of 10° C./min in a nitrogen gas (30 mL/min) stream. In this operation, 10% thermal reduction temperature was measured.

SMILES: Oc1ccc(-c2ccc(O)c(C(c3cccc(I)c3)c3cc(-c4ccc(O)cc4)ccc3O)c2)cc1 [BiF-I-3]
- solubility in PGME and PGMEA (dissolution amount) [1]: ≥ 30 % by mass
- solubility in PGME and PGMEA (evaluation) [1]: A (Evaluation A: 20% by mass or more)
- 10% thermal reduction temperature [2]: ≥ 300 °C

SMILES: COc1cc(C(c2cc(-c3ccc(O)cc3)ccc2O)c2cc(-c3ccc(O)cc3)ccc2O)cc(O)c1I [BiF-I-2]
- solubility in PGME and PGMEA (dissolution amount) [1]: ≥ 30 % by mass
- solubility in PGME and PGMEA (evaluation) [1]: A (Evaluation A: 20% by mass or more)
- 10% thermal reduction temperature [2]: ≥ 400 °C

SMILES: Oc1ccc(-c2ccc(O)c(C(c3ccc(I)cc3)c3cc(-c4ccc(O)cc4)ccc3O)c2)cc1 [BiF-I-1]
- solubility in PGME and PGMEA (dissolution amount) [1]: ≥ 30 % by mass
- solubility in PGME and PGMEA (evaluation) [1]: A (Evaluation A: 20% by mass or more)
- 10% thermal reduction temperature [2]: ≥ 400 °C
